Read-outs that look alike come from different tables or passages of the source.
How the values were obtained:
[1] = molecular target: T1, KOR (κ opioid receptor) (Homo sapiens, UniProt P41145); experiment: KOR radioligand binding ([3H]-U69593, HEK293 cell homogenates); conditions: for inhibition at 10 µM: Percent inhibition at 10,000 nM
T1 construct: expressed in transfected cells; host or cells: HEK293 (stably transfected)
Protocol: (§1) Radioligand binding assays. Detailed protocols for the primary and secondary radioligand binding assays can be found in the National Institute of Mental Health's Psychoactive Drug Screening Program (NIMH PDSP) Assay Protocol Book (Roth, 2018). Briefly, primary and secondary radioligand binding assays are carried out in a final of volume of 125 μL per well in appropriate binding buffer. […] Total binding and nonspecific binding are determined in the absence and presence of 10 μM of appropriate reference compound (Naltrindole DOR, Salvinorin A KOR and DAMGO MOR). In brief, plates are usually incubated at room temperature and in the dark for 90 min. Reactions are stopped by vacuum filtration onto 0.3% polyethyleneimine (PEI) soaked 96-well filter mats using a 96-well Filtermate harvester, followed by three washes with cold PBS buffer. Scintillation cocktail is then melted onto the microwave-dried filters on a hot plate and radioactivity counted in a Microbeta counter. The data (n=6) were analyzed by nonlinear regression.
(§2) Ligand affinities were determined for KOR (κ opioid receptor), DOR (δ opioid receptor), and MOR (μ opioid receptor) using radioligand binding assays at a screening concentration of 10,000 nM. For these assays, cell homogenates from HEK293 cells that overexpressed KOR, MOR, and DOR were used in combination with [^3H]-U69593, [^3H]-DAMGO, and [^3H]-DADLE, respectively Compounds that exceeded more than 50% radioligand displacement were investigated further in concentration-dependent experiments to determine Ki values. Gamma aminobutyric acid type A receptor (GABAAR) binding was determined with rat brain homogenate and ^3H-flunitrazepam. Flunitrazepam binds GABAAR subtypes that consists of two α and two β subunits and one γ or δ subunit. Strong affinities to α1-3,5,6β1-3γ1-y/δ GABAARS have been reported for flunitrazepam. The […] GABAAR subtype expression in the brain includes 43% α1β2γ2, 15% α2β3γ2+8% α2βγ1, 10% α3β3γ2, 6% α4βγ/δ, 4% α5β3γ2, and 4% α6β2γ2/δ. Therefore, compounds with high affinity toward the synaptic benzodiazepine-sensitive receptors (BZR) predominately bind α1-3β2-3γ1-2 GABAARs. Alternatively, compounds with weak BZR binding might be selective for α4-6βγ/δ GABAARs.
(§3) Psychoactive Drug Screening Program. Detailed protocols for the primary and secondary radioligand binding assays can be found in the National Institute of Mental Health's Psychoactive Drug Screening Program (NIMH PDSP) Assay Protocol Book. Briefly, primary and secondary radioligand binding assays are carried out in a final of volume of 125 μL per well in appropriate binding buffer. The radioactive ligand concentration is close to the Kd. Total binding and nonspecific binding are determined in the absence and presence of 10 μM of appropriate reference compound, respectively. In brief, plates are usually incubated at room temperature and in the dark for 90 min. Reactions are stopped by vacuum filtration onto 0.3% polyethyleneimine (PEI) soaked 96-well filter mats using a 96-well Filtermate harvester, followed by three washes with cold PBS buffer. Scintillation cocktail is then melted onto the microwave-dried filters on a hot plate and radioactivity counted in a Microbeta counter. The data (n=6) were analyzed by nonlinear regression.

[2] = molecular target: T2, MOR (μ opioid receptor) (Homo sapiens, UniProt P35372); experiment: MOR radioligand binding ([3H]-DAMGO, HEK293 cell homogenates); conditions: Percent inhibition at 10,000 nM; [3H]-DAMGO
T2 construct: expressed in transfected cells; host or cells: HEK293
T2 sequence (P35372 whole entry, species assumed): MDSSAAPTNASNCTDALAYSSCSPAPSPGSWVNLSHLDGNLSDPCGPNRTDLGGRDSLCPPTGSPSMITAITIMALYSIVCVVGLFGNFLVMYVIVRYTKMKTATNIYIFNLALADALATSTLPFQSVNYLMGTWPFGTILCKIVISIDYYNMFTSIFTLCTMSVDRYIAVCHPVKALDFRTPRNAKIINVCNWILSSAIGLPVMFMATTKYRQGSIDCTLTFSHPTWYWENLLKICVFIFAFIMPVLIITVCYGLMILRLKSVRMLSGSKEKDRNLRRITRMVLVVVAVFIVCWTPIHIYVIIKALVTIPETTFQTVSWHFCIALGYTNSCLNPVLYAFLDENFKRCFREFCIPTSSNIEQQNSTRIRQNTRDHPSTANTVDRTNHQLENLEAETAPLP
Protocol: as §1, §2, §3

[3] = molecular target: T3, DOR (δ opioid receptor) (Homo sapiens, UniProt P41143); experiment: DOR radioligand binding ([3H]-DADLE, HEK293 cell homogenates); conditions: Percent inhibition at 10,000 nM; [3H]-DADLE
T3 construct: expressed in transfected cells; host or cells: HEK293
T3 sequence (P41143 whole entry): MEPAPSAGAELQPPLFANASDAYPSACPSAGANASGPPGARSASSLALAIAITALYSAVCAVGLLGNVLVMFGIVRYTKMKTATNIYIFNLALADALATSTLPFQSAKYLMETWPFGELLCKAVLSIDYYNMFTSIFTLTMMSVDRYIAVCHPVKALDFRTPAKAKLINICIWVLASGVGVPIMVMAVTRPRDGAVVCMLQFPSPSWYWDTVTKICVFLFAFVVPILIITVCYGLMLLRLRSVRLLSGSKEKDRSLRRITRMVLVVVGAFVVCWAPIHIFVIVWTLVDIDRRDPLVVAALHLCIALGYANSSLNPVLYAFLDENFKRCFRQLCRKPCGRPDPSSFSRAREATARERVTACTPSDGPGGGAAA
Protocol: as §1, §2, §3

[4] = tested on: BZR (benzodiazepine site of GABAAR); experiment: GABAAR/BZR binding, rat brain homogenate with 3H-flunitrazepam; conditions: rat brain homogenate, 3H-flunitrazepam; for BZR %: Percent inhibition at 10,000 nM
Protocol: as §2, §3

[5] = tested on: Mouse microglia; experiment: NO production (Griess assay), LPS/IFNγ-activated mouse microglia; format: cell-based; conditions: for Inhibition of NO production (%) Mouse microglia 50 μM: 24 hours, 1 μM GABA, LPS/IFNγ
Protocol: (§4) Next, a library of GABAAR ligands was investigated to identify compounds that reduce the production of NO as a marker of anti-inflammatory activity. […] NO was quantified with a Greiss assay. Cell viability was determined with CellTiter-Glo.
Cell culture. A) HMC3 Microglia (CRL-3304) were maintained in treated cell culture flasks (Nunc, 156472) with EMEM (Corning, 10010CV) supplemented with 10% heat-inactivated FBS (Corning, 35011CV) and 100 U/mL penicillin and 100 μg/mL streptomycin (Hyclone, SV30010). Cultures were maintained at 37° C. and 5% CO2. When cells reached a density of 7×10^4 cells/mL, cultures were passaged with 0.25% Trypsin (Corning, 25-053-CI) and resuspended to a density no lower than 10,000 cells/mL. B) Human and mouse microglia cell lines were a gift from Dr. David Alvarez-Carbonell at Case Western Reserve University (Cleveland, OH). Microglia were cultured in cell culture treated flasks (Nunc, 156472) with DME/F12 media (Hyclone, SH30023.01) supplemented with 10% heat-inactivated FBS (Corning, 35011CV), 100 U/mL penicillin/100 μg/mL streptomycin (Hyclone, SV30010), and Normocin (Invivogen, ant-nr). Cultures were maintained at 37° C. and 5% CO2. […] Cultures were maintained at 37° C. and 5% CO2. Cells were passaged when they reached a density of approximately 3×10^6 cells/mL using cell scrapers (VWR, 10062-906) to lift cells from flask surface and resuspended at densities of approximately 500,000 cells/mL.
(§5) Nitric oxide production (Griess assay) and viability assay (CellTiter-Glo). 80 μL of mouse microglia culture (1×10^6 cells/mL) was plated into sterile 384 well plates representing non-activated wells. The remaining culture was activated with 50 ng/ml LPS (Invivogen, NC9836) and 150 U/mL IFNγ (R&D Systems, 485MI100) and distributed into the 384 well plates. […] Assay plates were incubated for approximately 24 hours (unless otherwise noted) at 37° C., centrifuged, and 40 μL of supernatant transferred to a new plate for analysis using the Griess Assay (Promega, Madison, WI). Absorbance at 530 nm was measured using a TECAN Infinite M1000 plate reader. The remaining 40 μL containing cells was analyzed for toxicity by the CellTiter-Glo Assay (Promega, Madison, WI). Luminescence was read using a TECAN Infinite M1000 plate reader.

[6] = tested on: Mouse microglia; experiment: Cell viability (CellTiter-Glo), mouse microglia; format: cell-based; conditions: 50 μM, CellTiter-Glo
Protocol: as §4, §5

[7] = tested on: HEK293; experiment: Viability assay (CellTiter-Glo), HEK293; format: cell-based, human; conditions: 120 μM, CellTiter-Glo
Protocol: (§6) The screen identified several compounds that reduced NO in activated microglia and macrophages. The tested compounds included achiral and chiral imidazodiazepines and benzodiazepines. In general, microglia were more sensitive to compound treatment with more pronounced reduction of NO than macrophages. […] Cell viability assays with HEK293 (kidney) and HepG2 (liver) cells were conducted in a concentration dependent manner. A limited number of compounds, such as GL-III-63, GL-III-76A, and GL-III-77, were toxic at 120 μM.
(§7) Viability assay. Human liver hepatocellular carcinoma (HEPG2) and human embryonic kidney 293T (HEK293T) cell lines were purchased (ATCC) and cultured in 75 cm^2 flasks (CellStar). Cells were grown in DMEM/High Glucose (Hyclone, #SH3024301) media to which non-essential amino acids (Hyclone, #SH30238.01), 10 mM HEPES (Hyclone, #SH302237.01), 5×10^6 units of penicillin and streptomycin (Hyclone, #SV30010), and 10% of heat inactivated fetal bovine serum (Gibco, #10082147) were added. Cells were harvested using 0.05% Trypsin (Hyclone, #SH3023601), washed with PBS, and dispensed into sterile white, optical bottom 384-well plates (NUNC, #142762). After three hours, small molecule DMSO solutions were transferred with a Tecan Freedom EVO liquid handling system equipped with a 100 nL pin tool (V&P Scientific). The controls were 3-dibutylamino-1-(4-hexyl-phenyl)-propan-1-one (25 mM in DMSO, positive control) and DMSO (negative control). The cells were incubated for 48 hours followed by the addition of CellTiter-Glo™, a luminescence-based cell viability assay (Promega, Madison, WI). All luminescence readings were performed on a Tecan Infinite M1000 plate reader. The assay was carried out in quadruplet with two independent runs. The data were analyzed by nonlinear regression.

[8] = tested on: HEPG2; experiment: Viability assay (CellTiter-Glo), HEPG2; format: cell-based, human; conditions: 120 μM, CellTiter-Glo
Protocol: as §6, §7

T1 sequence (P41145 whole entry): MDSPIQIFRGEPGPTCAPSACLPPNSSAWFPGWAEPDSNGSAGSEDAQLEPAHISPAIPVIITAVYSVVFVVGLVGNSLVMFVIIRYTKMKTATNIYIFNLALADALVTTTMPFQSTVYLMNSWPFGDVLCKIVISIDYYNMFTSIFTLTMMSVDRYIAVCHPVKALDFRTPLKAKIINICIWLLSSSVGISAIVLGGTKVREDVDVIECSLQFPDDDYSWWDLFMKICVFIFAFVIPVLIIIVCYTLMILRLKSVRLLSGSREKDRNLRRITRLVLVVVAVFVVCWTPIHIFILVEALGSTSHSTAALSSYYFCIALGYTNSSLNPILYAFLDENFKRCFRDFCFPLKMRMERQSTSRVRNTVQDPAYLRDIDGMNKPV

## C#Cc1ccc2c(c1)C(c1ccccc1F)=N[C@@H](C)c1c(-c3nc(C)no3)ncn1-2 [GL-I-65, (S)-5-(8-Ethynyl-6-(2-fluorophenyl)-4-methyl-4H-benzo[f]imidazo[1,5-a][1,4]diazepin-3-yl)-3-methyl-1,2,4-oxadiazole]
[1]
  Ki: 222 nM
[1]; [3H]-U69593
  inhibition at 10 µM: 88%
[2]
  inhibition at 10 µM: 2%
[3]
  inhibition at 10 µM: 7%
[4]
  BZR %: 79%
  Ki: 1150 nM
[5]; Mus musculus, Microglia, 24 h
  inhibition at 50 µM: 19 ± 9%
[6]
  Cell viability (%) Mouse microglia 50 μM: 100 ± 12%

## C#Cc1ccc2c(c1)C(c1ccccc1)=NCc1c(-c3cnco3)ncn1-2 [KRM-II-82]
[1]; [3H]-U69593
  inhibition at 10 µM: 78%
[1]; concentration-dependent, [3H]-U69593, read-out: KOR (Ki)
  Ki: 1200 nM
[2]
  inhibition at 10 µM: 5%
[3]
  inhibition at 10 µM: 20%
[4]
  BZR %: 95%
  Ki: 96 nM
[5]; Mus musculus, Microglia, 24 h
  inhibition at 50 µM: 0%
[6]
  Cell viability (%) Mouse microglia 50 μM: 100 ± 6%

## C#Cc1ccc2c(c1)C(c1ccccc1F)=N[C@@H](C)c1c(-c3nc(CC)no3)ncn1-2 [GL-I-66, (S)-3-Ethyl-5-(8-ethynyl-6-(2-fluorophenyl)-4-methyl-4H-benzo[f]imidazo[1,5-a][1,4]diazepin-3-yl)-1,2,4-oxadiazole]
[1]
  Ki: 212 nM
[1]; [3H]-U69593
  inhibition at 10 µM: 92%
[2]
  inhibition at 10 µM: 28%
[3]
  inhibition at 10 µM: 2%
[4]
  BZR %: 80%
  Ki: 654 nM
[5]; Mus musculus, Microglia, 24 h
  inhibition at 10 µM: 5 ± 2%
  inhibition at 50 µM: 86 ± 11%
[6]
  Cell viability (%) Mouse microglia 50 μM: 71 ± 9%

## C#Cc1ccc2c(c1)C(c1ccccc1F)=NCc1c(C(=O)OCCCOC(=O)c3ncn4c3CN=C(c3ccccc3F)c3cc(C#C)ccc3-4)ncn1-2 [YT-III-271]
[5]
  Inhibition of NO production (%) Mouse microglia 50 μM: 0 ± 4%
[6]
  Cell viability (%) Mouse microglia 50 μM: 100 ± 3%

## C#Cc1ccc2c(c1)C(c1ccccc1F)=NCc1c(-c3nc(C)no3)ncn1-2 [GL-III-23]
[5]
  Inhibition of NO production (%) Mouse microglia 50 μM: 28 ± 5%
[6]
  Cell viability (%) Mouse microglia 50 μM: 100 ± 2%
[7]
  Cell viability (%) HEK293 120 μM: 65 ± 5%
[8]
  Cell viability (%) HEPG2 120 μM: 90 ± 13%

— US20240279232A1, “USE OF SUBSTITUTED 5-(4-METHYL-6-PHENYL-4H-BENZO[F]IMIDAZO[1,5-A][1,4] DIAZEPIN-3-YL)-1,2,4-O[…] THE TREATMENT OF INFLAMMATORY CONDITIONS” (priority 2021, published 2024)
